This note sets out measurements from US20230117034A1, “PYRAZOLOTRIAZINES” (Bayer Aktiengesellschaft, priority 2019, published 2023).

In test [1] the target is T1, CDK12 (nuclear staining in CAL-120 cells) (Homo sapiens, UniProt Q9NYV4).
T1 construct: endogenous in cells; host or cells: CAL-120 human breast cancer cells (DSMZ ACC 459)
Briefly: CDK12 nuclear protein level: immunofluorescence/high content analysis (CAL-120). Type of test: cell-based. The conditions noted are these: for DC50: CAL-120 cells, 24 h, immunofluorescence, 50% reduction of nuclear CDK12 staining intensity, median, read-out: CDK12 degradation IF, DC50- [mol/l] (median); for (IC50 CDK12 high ATP) to (Degradation DC50 CDK12) ratio: ratio of IC50 CDK12 high ATP kinase assay to DC50 CDK12 degradation (IF, CAL-120). In short, it runs like this: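 CAL-120 cells were treated with compound for 24 h at 37 °C, fixed with PFA and immunostained for CDK12. Nuclear CDK12 intensity was quantified by automated image analysis and normalized to DMSO and control. DC50 is the concentration giving 50% reduction of nuclear staining.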

A further test addresses T2, CDK9/CycT1 (Homo sapiens, UniProt P50750).
T2 construct: Recombinant full-length His-tagged human CDK9 and CycT1; purchased Life Technologies PV4131; host or cells: insect cells
Briefly: CDK9/CycT1 high ATP kinase assay (TR-FRET, 2 mM ATP). In kind it is biochemical. Particulars: 2 mM ATP (high ATP); median; read-out: CDK9/CyclinT1, 2 mM ATP (high ATP), IC50 (median). In short, it runs like this:
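Full-length His-tagged human CDK9/CycT1 (insect cell, ~0.5 μg/mL) preincubated 15 min at 22 °C with compound in Tris pH 8.0, MgCl2, DTT buffer before reaction with biotinylated peptide substrate at high ATP (2 mM).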

T1 sequence (Q9NYV4 whole entry): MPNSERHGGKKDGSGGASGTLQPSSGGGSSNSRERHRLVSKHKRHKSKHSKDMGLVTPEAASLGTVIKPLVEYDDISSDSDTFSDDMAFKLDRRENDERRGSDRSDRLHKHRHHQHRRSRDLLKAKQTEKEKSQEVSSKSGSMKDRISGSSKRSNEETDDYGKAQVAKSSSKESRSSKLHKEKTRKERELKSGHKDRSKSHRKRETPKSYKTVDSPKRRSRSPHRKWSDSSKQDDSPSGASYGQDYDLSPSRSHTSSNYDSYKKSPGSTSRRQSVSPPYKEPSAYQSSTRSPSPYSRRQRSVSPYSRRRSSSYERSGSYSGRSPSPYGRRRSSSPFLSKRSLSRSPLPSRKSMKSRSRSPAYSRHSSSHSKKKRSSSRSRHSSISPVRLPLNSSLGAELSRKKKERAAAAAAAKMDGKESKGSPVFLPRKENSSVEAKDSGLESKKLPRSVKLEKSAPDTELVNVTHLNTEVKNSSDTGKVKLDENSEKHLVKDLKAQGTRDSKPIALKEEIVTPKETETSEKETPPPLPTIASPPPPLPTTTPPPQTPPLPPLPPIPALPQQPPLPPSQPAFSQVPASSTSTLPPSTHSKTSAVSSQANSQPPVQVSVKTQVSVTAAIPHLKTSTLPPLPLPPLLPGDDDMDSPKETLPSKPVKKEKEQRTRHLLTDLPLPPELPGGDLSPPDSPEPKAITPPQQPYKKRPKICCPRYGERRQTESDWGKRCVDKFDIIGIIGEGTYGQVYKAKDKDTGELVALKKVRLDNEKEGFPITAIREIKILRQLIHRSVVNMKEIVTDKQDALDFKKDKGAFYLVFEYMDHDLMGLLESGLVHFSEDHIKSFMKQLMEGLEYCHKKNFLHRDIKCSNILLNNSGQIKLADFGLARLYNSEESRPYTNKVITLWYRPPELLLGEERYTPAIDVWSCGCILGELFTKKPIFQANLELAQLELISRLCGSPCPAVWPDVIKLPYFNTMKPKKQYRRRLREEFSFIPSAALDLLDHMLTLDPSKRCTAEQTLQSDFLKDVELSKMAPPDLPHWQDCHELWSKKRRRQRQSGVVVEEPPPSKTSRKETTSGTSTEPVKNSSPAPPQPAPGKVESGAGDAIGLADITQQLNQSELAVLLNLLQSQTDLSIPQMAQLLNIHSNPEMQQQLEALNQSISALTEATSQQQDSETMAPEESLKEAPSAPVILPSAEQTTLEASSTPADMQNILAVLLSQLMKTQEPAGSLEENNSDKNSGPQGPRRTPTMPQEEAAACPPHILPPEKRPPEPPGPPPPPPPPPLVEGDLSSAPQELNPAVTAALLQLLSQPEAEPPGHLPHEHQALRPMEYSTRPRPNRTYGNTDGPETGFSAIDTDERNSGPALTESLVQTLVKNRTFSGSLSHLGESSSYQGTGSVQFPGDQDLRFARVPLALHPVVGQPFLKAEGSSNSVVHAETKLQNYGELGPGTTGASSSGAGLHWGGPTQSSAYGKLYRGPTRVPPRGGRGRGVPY
T1 sequence (O75909 whole entry partner): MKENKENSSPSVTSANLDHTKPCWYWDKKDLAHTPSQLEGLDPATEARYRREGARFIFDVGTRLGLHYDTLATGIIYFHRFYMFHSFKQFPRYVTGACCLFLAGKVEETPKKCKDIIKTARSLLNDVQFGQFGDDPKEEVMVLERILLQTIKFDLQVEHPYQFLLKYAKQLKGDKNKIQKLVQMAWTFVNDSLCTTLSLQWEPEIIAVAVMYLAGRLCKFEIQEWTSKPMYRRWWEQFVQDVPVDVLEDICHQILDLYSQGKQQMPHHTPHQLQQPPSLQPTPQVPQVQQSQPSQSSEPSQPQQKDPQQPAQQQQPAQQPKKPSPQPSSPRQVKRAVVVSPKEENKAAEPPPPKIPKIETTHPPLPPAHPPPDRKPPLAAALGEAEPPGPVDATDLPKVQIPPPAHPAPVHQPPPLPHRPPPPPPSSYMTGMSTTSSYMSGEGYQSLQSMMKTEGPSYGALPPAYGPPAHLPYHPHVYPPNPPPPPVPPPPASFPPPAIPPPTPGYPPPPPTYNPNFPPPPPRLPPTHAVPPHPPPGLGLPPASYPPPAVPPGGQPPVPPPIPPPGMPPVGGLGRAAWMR
T2 sequence (P50750 whole entry): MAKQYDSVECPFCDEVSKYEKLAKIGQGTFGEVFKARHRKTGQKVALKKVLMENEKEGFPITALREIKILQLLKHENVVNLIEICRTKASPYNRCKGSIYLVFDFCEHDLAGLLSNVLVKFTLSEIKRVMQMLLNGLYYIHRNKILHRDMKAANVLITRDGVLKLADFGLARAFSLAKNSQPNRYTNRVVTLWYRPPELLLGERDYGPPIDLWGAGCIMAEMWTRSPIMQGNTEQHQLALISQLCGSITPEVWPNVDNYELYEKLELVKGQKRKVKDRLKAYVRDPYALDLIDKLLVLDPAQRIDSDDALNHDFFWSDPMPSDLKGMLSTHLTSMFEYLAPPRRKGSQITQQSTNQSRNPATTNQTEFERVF
T2 sequence (O60563 whole entry partner): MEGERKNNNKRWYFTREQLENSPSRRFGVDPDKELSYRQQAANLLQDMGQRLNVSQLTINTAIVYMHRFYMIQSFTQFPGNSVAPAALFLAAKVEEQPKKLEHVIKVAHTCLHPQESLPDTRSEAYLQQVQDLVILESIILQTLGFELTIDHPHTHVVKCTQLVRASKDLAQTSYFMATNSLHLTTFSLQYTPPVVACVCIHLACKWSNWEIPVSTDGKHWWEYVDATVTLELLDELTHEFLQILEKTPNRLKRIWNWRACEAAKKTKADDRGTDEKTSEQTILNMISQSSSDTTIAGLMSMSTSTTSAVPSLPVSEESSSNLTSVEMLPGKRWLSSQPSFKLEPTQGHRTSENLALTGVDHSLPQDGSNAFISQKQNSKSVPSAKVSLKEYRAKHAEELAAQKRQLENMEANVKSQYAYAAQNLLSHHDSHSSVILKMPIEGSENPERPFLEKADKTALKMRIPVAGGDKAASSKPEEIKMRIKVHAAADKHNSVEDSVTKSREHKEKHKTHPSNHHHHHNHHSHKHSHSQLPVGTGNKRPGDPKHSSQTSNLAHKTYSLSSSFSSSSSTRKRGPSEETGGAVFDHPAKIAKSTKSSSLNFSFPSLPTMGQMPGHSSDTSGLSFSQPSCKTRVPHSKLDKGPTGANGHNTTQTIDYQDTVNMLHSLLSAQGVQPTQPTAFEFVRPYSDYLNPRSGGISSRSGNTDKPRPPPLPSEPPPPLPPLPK

With `OC[C@@H]1CCCCN1c1nc(NCc2nc3cc(F)ccc3[nH]2)n2ncc(C3CC3)c2n1` [Example 191, [(2S)-1-(8-cyclopropyl-4-{[(5-fluoro-1H-benzimidazol-2-yl)methyl]amino}pyrazolo[1,5-a][1,3,5]triazin-2-yl)piperidin-2-yl]methanol], in test [1], the DC50 was 0.606 nM and the “(IC50 CDK12 high ATP) to (Degradation DC50 CDK12) ratio” value was found to be 548. In addition, on CDK9/CycT1, the IC50 amounted to 7340 nM.
For `Fc1cccc2[nH]c(CNc3nc(N4C[C@@H]5C[C@H]4CO5)nc4c(C5CC5)cnn34)nc12` [Example 183, 8-cyclopropyl-N-[(4-fluoro-1H-benzimidazol-2-yl)methyl]-2-[(1S,4S)-2-oxa-5-azabicyclo[2.2.1]heptan-5-yl]pyrazolo[1,5-a][1,3,5]triazin-4-amine], in that order: 1.65 nM, 6199 and > 20000 nM.
For `Brc1cnn2c(NCc3nc4ccccc4[nH]3)nc(NCCN3CCCC3)nc12` [Example 235, N4-(1H-benzimidazol-2-ylmethyl)-8-bromo-N2-(2-pyrrolidin-1-ylethyl)pyrazolo[1,5-a][1,3,5]triazine-2,4-diamine], in that order: 104 nM, >192 and > 20000 nM.
For `Cc1ccc2[nH]c(CNc3nc(N4C[C@H]5C[C@@H]4CO5)nc4c(C5CC5)cnn34)nc2c1` [Example 196, 8-cyclopropyl-N-[(5-methyl-1H-benzimidazol-2-yl)methyl]-2-[(1R,4R)-2-oxa-5-azabicyclo[2.2.1]heptan-5-yl]pyrazolo[1,5-a][1,3,5]triazin-4-amine], in that order: 1.9 nM, 8068 and > 20000 nM.
As to `CC(C)c1cnn2c(NCc3nc4ccccc4[nH]3)nc(Nc3ccccc3)nc12` [Example 13, N^4-[(1H-benzimidazol-2-yl)methyl]-N^2-phenyl-8-(propan-2-yl)pyrazolo[1,5-a][1,3,5]triazine-2,4-diamine], in test [1], the DC50 is 43.8 nM and the “(IC50 CDK12 high ATP) to (Degradation DC50 CDK12) ratio” value is given as >457. For the same molecule, the IC50 at CDK9/CycT1 is > 20000 nM.
For `Cc1ccc2[nH]c(CNc3nc(N4C[C@@H]5CCCN[C@@H]5C4)nc4c(C5CC5)cnn34)nc2c1` [Example 195, 8-cyclopropyl-N-[(5-methyl-1H-benzimidazol-2-yl)methyl]-2-[(4aS,7aS)-octahydro-6H-pyrrolo[3,4-b]pyridin-6-yl]pyrazolo[1,5-a][1,3,5]triazin-4-amine], in that order: 2.18 nM, 3781 and > 20000 nM.
For `O=C1CN(c2nc(NCc3nc4ccccc4[nH]3)n3ncc(Br)c3n2)CCN1` [Example 167, 4-(4-{[(1H-benzimidazol-2-yl)methyl]amino}-8-bromopyrazolo[1,5-a][1,3,5]triazin-2-yl)piperazin-2-one], in test [1], the DC50 amounted to 16.9 nM and the “(IC50 CDK12 high ATP) to (Degradation DC50 CDK12) ratio” value worked out at 420. At CDK9/CycT1, the IC50 is > 20000 nM.
For `COc1cccc2[nH]c(CNc3nc(N4CCNCC4)nc4c(C5CC5)cnn34)nc12` [Example 211, 8-cyclopropyl-N-[(4-methoxy-1H-benzimidazol-2-yl)methyl]-2-(piperazin-1-yl)pyrazolo[1,5-a][1,3,5]triazin-4-amine], in that order: 2.32 nM, 1184 and > 20000 nM.
Turning to `Fc1ccc2[nH]c(CNc3nc(N4C[C@@H]5CCCN[C@@H]5C4)nc4c(C5CC5)cnn34)nc2c1` [Example 180, 8-cyclopropyl-N-[(5-fluoro-1H-benzimidazol-2-yl)methyl]-2-[(4aS, 7aS)-octahydro-6H-pyrrolo[3,4-b]pyridin-6-yl]pyrazolo[1,5-a][1,3,5]triazin-4-amine], in test [1], the DC50 came to 1.59 nM and the “(IC50 CDK12 high ATP) to (Degradation DC50 CDK12) ratio” value stood at 10852. Besides, at CDK9/CycT1, the IC50 is > 20000 nM.
For `CN1CCN(c2nc(NCc3nc4ccccc4[nH]3)n3ncc(Br)c3n2)CC1` [Example 18, N-[(1H-benzimidazol-2-yl)methyl]-8-bromo-2-(4-methylpiperazin-1-yl)pyrazolo[1,5-a][1,3,5]triazin-4-amine], in that order: 2.98 nM, >5268 and > 20000 nM.
For `Fc1ccc2[nH]c(CNc3nc(N4CCOCC4)nc4c(C5CC5)cnn34)nc2c1` [Example 181, 8-cyclopropyl-N-[(5-fluoro-1H-benzimidazol-2-yl)methyl]-2-(morpholin-4-yl)pyrazolo[1,5-a][1,3,5]triazin-4-amine], in that order: 0.878 nM, 2179 and > 20000 nM.
Consider `CN1CC2CCC(C1)N2c1nc(NCc2nc3ccccc3[nH]2)n2ncc(Br)c2n1` [Example 226, N-(1H-benzimidazol-2-ylmethyl)-8-bromo-2-(3-methyl-3,8-diazabicyclo[3.2.1]octan-8-yl)pyrazolo[1,5-a][1,3,5]triazin-4-amine], for which, in test [1], the DC50 was 27.6 nM and the “(IC50 CDK12 high ATP) to (Degradation DC50 CDK12) ratio” value is on record as >725. Besides, at CDK9/CycT1, the IC50 is > 20000 nM.
For `Cc1ccc2[nH]c(CNc3nc(N4CCNCC4)nc4c(Br)cnn34)nc2c1` [Example 204, 8-bromo-N-[(5-methyl-1H-benzimidazol-2-yl)methyl]-2-(piperazin-1-yl)pyrazolo[1,5-a][1,3,5]triazin-4-amine], in that order: 0.619 nM, 7019 and > 20000 nM.
`C[C@@H]1CN(c2nc(NCc3nc4ccccc4[nH]3)n3ncc(Br)c3n2)CCN1` [Example 168, N-[(1H-benzimidazol-2-yl)methyl]-8-bromo-2-[(3R)-3-methylpiperazin-1-yl]pyrazolo[1,5-a][1,3,5]triazin-4-amine]: in test [1], the DC50 came out at 0.532 nM and the “(IC50 CDK12 high ATP) to (Degradation DC50 CDK12) ratio” value is given as 10872. For the same molecule, the IC50 on CDK9/CycT1 is > 20000 nM.
Consider `CC1(C)CN(c2nc(NCc3nc4ccccc4[nH]3)n3ncc(Br)c3n2)CCN1` [Example 216, N-[(1H-benzimidazol-2-yl)methyl]-8-bromo-2-(3,3-dimethylpiperazin-1-yl)pyrazolo[1,5-a][1,3,5]triazin-4-amine], for which, in test [1], the DC50 turned out to be 3.31 nM and the “(IC50 CDK12 high ATP) to (Degradation DC50 CDK12) ratio” value is >1386. Also, the IC50 at CDK9/CycT1 was > 20000 nM.
For `COc1cccc2[nH]c(CNc3nc(N4CCN(C)CC4)nc4c(C5CC5)cnn34)nc12` [Example 197, 8-cyclopropyl-N-[(4-methoxy-1H-benzimidazol-2-yl)methyl]-2-(4-methylpiperazin-1-yl)pyrazolo[1,5-a][1,3,5]triazin-4-amine], in that order: 1.4 nM, 6827 and > 20000 nM.
Turning to `C[C@@H]1CN(c2nc(NCc3nc4cc(F)ccc4[nH]3)n3ncc(C4CC4)c3n2)C[C@H](C)N1` [Example 175, 8-cyclopropyl-2-[(3R,5S)-3,5-dimethylpiperazin-1-yl]-N-[(5-fluoro-1H-benzimidazol-2-yl)methyl]pyrazolo[1,5-a][1,3,5]triazin-4-amine], in test [1], the DC50 amounted to 0.322 nM and the “(IC50 CDK12 high ATP) to (Degradation DC50 CDK12) ratio” value came to 34272. For the same molecule, at CDK9/CycT1, the IC50 is > 20000 nM.
With `Brc1cnn2c(NCc3nc4ccccc4[nH]3)nc(N3CC4CCC(C3)N4)nc12` [Example 232, N-(1H-benzimidazol-2-ylmethyl)-8-bromo-2-(3,8-diazabicyclo[3.2.1]octan-3-yl)pyrazolo[1,5-a][1,3,5]triazin-4-amine], the DC50 in test [1] is > 3.6 nM. Moreover, the IC50 on CDK9/CycT1 is > 20000 nM.
On to `CN1CCCC2CN(c3nc(NCc4nc5ccccc5[nH]4)n4ncc(Br)c4n3)CC21` (centres unmarked) [Example 231, N-[(1H-benzimidazol-2-yl)methyl]-8-bromo-2-(1-methyloctahydro-6H-pyrrolo[3,4-b]pyridin-6-yl)pyrazolo[1,5-a][1,3,5]triazin-4-amine], for which, in test [1], the DC50 is 33.9 nM and the “(IC50 CDK12 high ATP) to (Degradation DC50 CDK12) ratio” value is reported as >590. Moreover, the IC50 at CDK9/CycT1 was > 20000 nM.
For `Cc1ccc2[nH]c(CNc3nc(N4C[C@@H](C)N[C@@H](C)C4)nc4c(C5CC5)cnn34)nc2c1` [Example 194, 8-cyclopropyl-2-[(3R,5S)-3,5-dimethylpiperazin-1-yl]-N-[(5-methyl-1H-benzimidazol-2-yl)methyl]pyrazolo[1,5-a][1,3,5]triazin-4-amine], in that order: 0.23 nM, 16078 and > 20000 nM.
For `Cc1ccc2[nH]c(CNc3nc(N4C[C@@H]5CCCN[C@@H]5C4)nc4c(Br)cnn34)nc2c1` [Example 203, 8-bromo-N-[(5-methyl-1H-benzimidazol-2-yl)methyl]-2-[(4aS, 7aS)-octahydro-6H-pyrrolo[3,4-b]pyridin-6-yl]pyrazolo[1,5-a][1,3,5]triazin-4-amine], in that order: 0.64 nM, 13757 and > 20000 nM.
